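Briefly, cells in 96-well plates were exposed to five compound concentrations for 48 h, and endpoints were estimated by linear interpolation. Abbreviation: GI50, concentration required for 50% inhibition of growth. The concentration for full growth arrest is given as TGI.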
Legend:
Assay in all cases: inhibition of tumour cell growth, NCI panel, 48 h
[1] = test system: UO-31 renal
[2] = test system: U251 CNS
[3] = test system: HL-60(TB) leukemia
[4] = test system: SR leukemia
[5] = test system: NCI-H23 lung
[6] = test system: A498 renal
[7] = test system: OVCAR-5 ovarian
[8] = test system: COLO 205 colon
[9] = test system: A549 NSCLC
[10] = test system: NCI-H460 lung
[11] = test system: OVCAR-3 ovarian
[12] = test system: SNB-75 CNS
[13] = test system: BT-549 breast
[14] = test system: LOX IMVI melanoma
[15] = test system: SK-MEL-5 melanoma
[16] = test system: RXF 393 renal
[17] = test system: PC-3 prostate
[18] = test system: DU-145 prostate
[19] = test system: NCI-H226 lung
[20] = test system: T-47D breast
[21] = test system: NCI-H522 lung
[22] = test system: OVCAR-8 ovarian
[23] = test system: SNB-19 CNS
[24] = test system: UACC-257 melanoma
[25] = test system: MALME-3M melanoma
[26] = test system: IGROV1 ovarian
[27] = test system: SF-268 CNS
[28] = test system: SK-MEL-28 melanoma
[29] = test system: SF-295 CNS
[30] = test system: HCT-116 colon
[31] = test system: K-562 leukemia
[32] = test system: 786-0 renal
[33] = test system: KM12 colon
[34] = test system: HT29 colon
[35] = test system: MDA-MB-231 breast
[36] = test system: TK-10 renal
[37] = test system: MCF7 breast
[38] = test system: MOLT-4 leukemia
[39] = test system: EKVX NSCLC
[40] = test system: SN12C renal
[41] = test system: HOP-62 NSCLC
[42] = test system: NCI/ADR-RES ovarian
[43] = test system: HCC-2998 colon
[44] = test system: ACHN renal
[45] = test system: OVCAR-4 ovarian
[46] = test system: RPMI-8226 leukemia
[47] = test system: SK-MEL-2 melanoma
[48] = test system: MDA-MB-435
[49] = test system: HOP-92 NSCLC
[50] = test system: SW-620 colon
[51] = test system: HS 578T breast
[52] = test system: CCRF-CEM leukemia
[53] = test system: UACC-62 melanoma
[54] = test system: HCT-15 colon
[55] = test system: M14 melanoma
[56] = test system: SF-539 CNS

## O=C(Nc1cnc(C(F)(F)F)cn1)c1cc(Cl)ccc1O
[1]
  GI50: 196 nM
  TGI: 1160 nM
[2]
  GI50: 352 nM
  TGI: > 100000 nM
[3]
  GI50: 279 nM
  TGI: 654 nM
[4]
  GI50: 347 nM
  TGI: 2190 nM
[5]
  GI50: 257 nM
  TGI: 1220 nM
[6]
  GI50: 235 nM
  TGI: 639 nM
[7]
  GI50: 343 nM
  TGI: > 100000 nM
[8]
  GI50: 1540 nM
  TGI: 3140 nM
[9]
  GI50: 377 nM
  TGI: > 100000 nM
[10]
  GI50: 332 nM
  TGI: 15200 nM
[11]
  GI50: 279 nM
  TGI: 20300 nM
[12]
  GI50: 194 nM
  TGI: 835 nM
[13]
  GI50: 255 nM
  TGI: 835 nM
[14]
  GI50: 291 nM
  TGI: 1750 nM
[15]
  GI50: 131 nM
  TGI: 336 nM
[16]
  GI50: 318 nM
  TGI: 922 nM
[17]
  GI50: 311 nM
  TGI: > 100000 nM
[18]
  GI50: 348 nM
  TGI: > 100000 nM
[19]
  GI50: 322 nM
  TGI: 23900 nM
[20]
  GI50: 238 nM
  TGI: 851 nM
[21]
  GI50: 178 nM
  TGI: 768 nM
[22]
  GI50: 365 nM
  TGI: 61800 nM
[23]
  GI50: 403 nM
  TGI: > 100000 nM
[24]
  GI50: 267 nM
  TGI: 781 nM
[25]
  GI50: 197 nM
  TGI: 565 nM
[26]
  GI50: 374 nM
  TGI: > 100000 nM
[27]
  GI50: 296 nM
  TGI: 94100 nM
[28]
  GI50: 257 nM
  TGI: 2200 nM
[29]
  GI50: 255 nM
  TGI: 675 nM
[30]
  GI50: 246 nM
  TGI: 1400 nM
[31]
  GI50: 272 nM
  TGI: > 100000 nM
[32]
  GI50: 356 nM
  TGI: 15900 nM
[33]
  GI50: 343 nM
  TGI: 16200 nM
[34]
  GI50: 2560 nM
  TGI: > 100000 nM
[35]
  GI50: 270 nM
  TGI: 946 nM
[36]
  GI50: 465 nM
  TGI: > 100000 nM
[37]
  GI50: 290 nM
  TGI: > 100000 nM
[38]
  GI50: 352 nM
  TGI: 1780 nM
[39]
  GI50: 228 nM
[40]
  GI50: 326 nM
  TGI: 52400 nM
[41]
  GI50: 266 nM
  TGI: 2350 nM
[42]
  GI50: 279 nM
  TGI: 13600 nM
[43]
  GI50: 294 nM
  TGI: 4600 nM
[44]
  GI50: 269 nM
  TGI: 1160 nM
[45]
  GI50: 254 nM
  TGI: > 100000 nM
[46]
  GI50: 273 nM
  TGI: 2750 nM
[47]
  GI50: 271 nM
  TGI: 840 nM
[48]
  GI50: 318 nM
  TGI: 3230 nM
[49]
  GI50: 188 nM
  TGI: 621 nM
[50]
  GI50: 348 nM
  TGI: > 100000 nM
[51]
  GI50: 335 nM
  TGI: 26400 nM
[52]
  GI50: 406 nM
  TGI: > 100000 nM
[53]
  GI50: 191 nM
  TGI: 1480 nM
[54]
  GI50: 307 nM
  TGI: 3240 nM
[55]
  GI50: 306 nM
  TGI: 2460 nM
[56]
  GI50: 294 nM
  TGI: 7910 nM
